# Measured values published in patent US5407950A, “Arylalkanoylamine derivative and drug containing the same” (priority 1990, dated 1995).
# Like-named read-outs stand apart in the source and are kept apart here.
# Legend:
# [1] = target: T1, prolyl endopeptidase from canine brain (Canis lupus familiaris, UniProt A0A8I3N6C8); assay: Inhibitory activity against prolyl endopeptidase from brain (Test Example 1); format: biochemical
# T1 construct: A prolyl endopeptidase was prepared from canine brains; from tissue; host or cells: canine brain
# T1 sequence (A0A8I3N6C8 1-710): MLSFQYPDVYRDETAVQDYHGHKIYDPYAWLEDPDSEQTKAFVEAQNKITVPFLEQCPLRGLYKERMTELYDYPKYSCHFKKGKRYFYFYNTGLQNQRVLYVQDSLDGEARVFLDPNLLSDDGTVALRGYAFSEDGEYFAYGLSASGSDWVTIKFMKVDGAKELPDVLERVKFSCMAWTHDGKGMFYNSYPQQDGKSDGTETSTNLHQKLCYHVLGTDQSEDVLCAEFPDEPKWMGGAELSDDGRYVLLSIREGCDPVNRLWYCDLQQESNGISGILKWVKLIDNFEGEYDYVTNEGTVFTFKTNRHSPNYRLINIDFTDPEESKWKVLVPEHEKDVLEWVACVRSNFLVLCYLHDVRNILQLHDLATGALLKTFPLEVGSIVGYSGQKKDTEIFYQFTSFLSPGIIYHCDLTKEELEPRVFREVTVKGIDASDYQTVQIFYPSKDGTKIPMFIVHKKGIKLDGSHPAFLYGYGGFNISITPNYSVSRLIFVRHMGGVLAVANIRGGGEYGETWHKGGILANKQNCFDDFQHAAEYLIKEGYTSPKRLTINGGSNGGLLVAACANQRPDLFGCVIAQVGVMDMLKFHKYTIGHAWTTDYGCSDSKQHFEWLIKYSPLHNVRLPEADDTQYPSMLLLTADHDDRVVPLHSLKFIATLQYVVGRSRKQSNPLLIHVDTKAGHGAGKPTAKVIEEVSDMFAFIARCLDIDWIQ
# Protocol: Following buffer solutions A and B were used for the measurement.
# Buffer A: 20 mM Tris-HCl buffer (pH 7.0)
# Buffer B: Buffer A containing 0.1% gelatin, 1 mM EDTA, 1 mM 2-mercaptoethanol.
# Dilution of the prolyl endopeptidase preparation with Buffer B to a concentration of 0.4 units/ml was done, and the resulting solution was defined as enzyme solution. To 940 μl of Buffer A was added 50 μl of the enzyme solution, followed by incubating at 37° C. for 10 minutes, to which was added 10 μl of a solution of a sample compound dissolved in dimethyl sulfoxide, and stirred and mixed together, followed by staying at 37° C. for ten minutes. To the mixture was added 100 μl of carbobenzoxyglycylprolyl p-nitroanilide dissolved in 40% dioxane to a final concentration of 2.5 mM, for reaction at 37° C. for 10 minutes, to which was added 100 μl of 50% acetic acid containing 10% Triton X-100, thereby terminating the reaction.
# For controls, dimethyl sulfoxide was added at the same amount (10 μl) instead of the solution of the sample compound; for blind tests, dimethyl sulfoxide and Buffer B were added instead of a sample compound and the enzyme solution, respectively, at the same amounts for effecting the same procedure.
# [2] = tested on: ICR male mice; assay: Anti-hypoxic activity (Test Example 2), survival time under 4% O2 / 96% N2; format: in vivo; conditions: 100 mg/kg, intraperitoneal, 30 min before gas; control = 100
# Protocol: Groups of ICR male mice (Charles River Co.), age 4 to 5 weeks, each group consisting of 10 mice and each mouse having been fasted for 24 hours, were used for the test. Mice were placed in a transparent desiccator (diameter: 19 cm, height: 30 cm) made of synthetic resin and having 2 valves, one at the upper portion and the other at the lower portion, for replacing the gas therein. […] The time measured was taken as the survival time.
# Each tested compound suspended in an solvent was intraperitoneally administered 30 minutes before the start of the mixed gas feeding. A group of mice to which only the solvent was intraperitoneally administered was used as a control.
# The anti-hypoxic activity was determined according to the following equation: [formula]
# [3] = tested on: ICR mice; assay: Toxicity test; Parenteral administration (Test Example 4); format: in vivo; conditions: 300 mg/kg parenteral, 7 days observation
# Protocol: Test Example 4 (Toxicity test; Parenteral administration)
# Ten ICR mice (Charles River, Co.), male, aged 4 to 5 weeks, were employed per group. The compounds of Examples 1, 5, 8 and 12 were separately suspended in 10% gum arabic, and then, they were individually administered parenterally at a dose of 300 mg/kg for subsequent observation for 7 days. As a result, no death was counted under the above conditions.
# [4] = tested on: Male ICR mice; assay: Toxicity test; Oral administration (Test Example 5); format: in vivo; conditions: 1,000 mg/kg oral, 7 days observation
# Protocol: Test Example 5 (Toxicity test; Oral administration)
# Five male ICR mice (Charles River, Co.) of age 5 weeks, were employed per group. The compound of Example 22 was suspended in a solvent, which was then administered orally at a dose of 1,000 mg/kg for subsequent observation for 7 days. As a result, no death was counted under the above conditions.
# [5] = canine brain enzyme, carbobenzoxyglycylprolyl p-nitroanilide substrate, 37° C., pH 7.0, read-out: Inhibition Potency IC50
"IC50 [1, 5]",SMILES,Anti-hypoxic Activity [2],death within 7 days (parenteral) [3],other results
–,"COc1ccc(C(=O)N2CCCC2=O)cc1 [Aniracetam, reference compound]",115%,–,IC50 [1]: > 1000 µM
–,"O=C([C@@H]1CSCN1C(=O)CC1Cc2ccccc2C1)N1CCC[C@H]1CO [Example 1, 1-[3-(Indan-2-ylacetyl)-L-thioprolyl]-L-prolinol]",–,no death,–
–,"O=C[C@@H]1CCCN1C(=O)[C@@H]1CSCN1C(=O)CC1Cc2ccccc2C1 [Example 2, 1-[3-(Indan-2-ylacetyl)-L-thioprolyl]-L-prolinal]",120%,–,–
–,"O=C([C@@H]1CSCN1C(=O)C[C@H]1CCc2ccccc2C1)N1CSC[C@H]1CO [Example 5, 3-[3-((S)-1,2,3,4-tetrahydronaphthalen 2-ylacetyl)-L-thioprolyl]-L-thioprolinol]",115%,no death,–
–,"O=C([C@@H]1CCCN1C(=O)c1cc2ccccc2o1)N1CCC[C@H]1CO [Example 6, 1-[1-(benzofuran-2-ylcarbonyl)-L-prolyl]-L-prolinol]",128%,–,–
–,"O=C[C@@H]1CCCN1C(=O)[C@@H]1CSCN1C(=O)C[C@H]1CCc2ccccc2C1 [Example 9, 1-[3-((S)-1,2,3,4-tetrahydronaphthalen-2-ylacetyl)-L-thioprolyl]-L-prolinal]",123%,–,death within 7 days (oral) [4]: no death
0.0014 µM,"O=C[C@@H]1CSCN1C(=O)[C@@H]1CSCN1C(=O)C[C@H]1CCc2ccccc2C1 [Example 10, 3-[3-((S)-1,2,3,4-tetrahydronaphthalen-2-ylacetyl)-L-thioprolyl]-L-thioprolinal]",129%,–,–
0.069 µM,"O=C[C@@H]1CCCN1C(=O)[C@@H]1CCCN1C(=O)c1cc2ccccc2o1 [Example 11, 1-[1-(benzofuran-2-ylcarbonyl)-L-prolyl]-L-prolinal]",–,–,–
–,"O=C[C@@H]1CSCN1C(=O)[C@@H]1CCCN1C(=O)c1cc2ccccc2o1 [Example 12, 3-[1-(benzofuran-2-ylcarbonyl)-L-prolyl]-L-thioprolinal]",–,no death,–
0.016 µM,"O=C([C@@H]1CSCN1C(=O)C[C@H]1CCc2ccccc2C1)N1CCC[C@H]1C=NO [Example 25, (2S)-1-[3-((S)-1,2,3,4-Tetrahydronaphthalen-2-ylacetyl)-L-thioprolyl]-2-pyrrolidine aldoxime]",–,–,–

SMILES,"IC50 [1, 5]",Anti-hypoxic Activity [2],death within 7 days (parenteral) [3],other results
"O=C[C@@H]1CSCN1C(=O)[C@@H]1CCCN1C(=O)CC1Cc2ccccc2C1 [Example 8, 3-[1-(indan-2-ylacetyl)-L-prolyl]-L-thioprolinal]",0.0012 µM,120%,no death,–
